The experiment concerns the target T1, VGLUT1 (Rattus norvegicus, UniProt Q62634).
T1 construct: only the hippocampus and the cerebral cortex were selected and isolated; endogenous in cells; host or cells: primary neurons from hippocampus and cerebral cortex of Sprague Dawley rat fetuses
T1 sequence (Q62634 1-560): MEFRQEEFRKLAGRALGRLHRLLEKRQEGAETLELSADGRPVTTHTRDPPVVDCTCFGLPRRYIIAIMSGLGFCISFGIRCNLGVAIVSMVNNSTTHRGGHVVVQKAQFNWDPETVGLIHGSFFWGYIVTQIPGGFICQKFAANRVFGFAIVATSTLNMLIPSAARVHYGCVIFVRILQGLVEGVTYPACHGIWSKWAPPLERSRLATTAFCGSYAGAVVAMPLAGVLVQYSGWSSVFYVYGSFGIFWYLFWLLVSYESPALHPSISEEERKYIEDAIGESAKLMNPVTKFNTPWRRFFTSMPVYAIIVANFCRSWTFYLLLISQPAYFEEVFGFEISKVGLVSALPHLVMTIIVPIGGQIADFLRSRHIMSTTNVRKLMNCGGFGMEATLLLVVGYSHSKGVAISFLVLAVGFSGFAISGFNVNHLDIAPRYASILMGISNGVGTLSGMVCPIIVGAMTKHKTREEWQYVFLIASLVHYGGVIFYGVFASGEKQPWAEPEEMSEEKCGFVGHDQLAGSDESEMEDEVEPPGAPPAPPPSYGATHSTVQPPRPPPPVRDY
The experiment can be described thus: In vitro binding test via primary culture: MR phantom study. The class given is cell-based, Sprague Dawley rats. As to conditions: primary rat brain neurons, 0, 50, 100, 200, 400 μM, 24 hours, washed, 3T MRI; FIG. 6A/6B. The procedure: 2) In Vitro Binding Test Via Primary Culture 2)-(1). Experimental Method {circumflex over (1)} Primary Culture of Rat Brain Neurons
Sprague Dawley rats at […] of pregnancy were purchased from Daehan Biolink. After stabilizing the pregnant […], respiratory anesthesia was performed using isoflurane, and the fetus was separated from the mother. The fetal brain was separated therefrom, the membrane was removed therefrom, and only the hippocampus and the cerebral cortex were selected and isolated, cut into small pieces, put in HBSS buffer and washed 4 times (centrifugation 1000 rpm, 3 minutes). After the last washing, HBSS was removed, and HBSS buffer containing trypsin was added thereto (cell volume: trypsin HBSS=1:1) and reaction occurred in a constant temperature water bath (37° C.) for 5 minutes. HBSS buffer containing 10% FBS was added thereto ((cell volume+trypsin HBSS): 10% FBS HBSS=1:1) to stop the enzyme reaction of trypsin, and the resulting product passed through 4 layers of lens paper and thus was formed into single cells. The cells were washed 4 times via centrifugation with HBSS buffer, and only the cells separated into the single cells were obtained. […]
The obtained cells were suspended in neurobasal media containing 1×N2 supplement, 1×B27, 4 mM L-glutamine, and 1% antibiotics at 7×10^6 cells per E-tube. […] MRI intensity was analyzed using ImageJ program.

Experimental findings from patent US12466843B2, “Gadolinium-based compound, method for producing same, and MRI contrast agent containing same” (KYUNGPOOK NATIONAL UNIVERSITY INDUSTRY-ACADEMIC COOPERATION …, priority 2019, dated 2025) are described below.

For the compound `O=C([O-])CN1CCN(CC(=O)[O-])CCN([C@H](CO)[C@H](O)CO)CCN(CC(=O)[O-])CC1.[Gd+3]` (racemic) [Gadovist], the “phantom signal intensity (brightness) based on Gd concentration” value is on record as “little difference in brightness based on the Gd concentration”.
